Columns and labels:
HRI +/+ reticulocytes = assay: [35S]-methionine incorporation / protein (globin) synthesis in isolated intact reticulocytes, HRI +/+; assay type: cell-based, mouse
Protocol: (§1) Mice were injected with phenylhydrazine at 40 mg/kg on days 0, 1 and 3 to induce hemolysis, and the subsequent erythropoiesis and release of reticulocytes into the blood stream. Blood samples were collected by heart puncture on day 7 when the reticulocyte counts were 85-95%. Reticulocytes were washed twice with ice-cold phosphate-buffered saline supplemented with 5 mM glucose. For protein synthesis assays, reticulocytes were resuspended in DMEM (2×10^8 cells/ml) with 1/10 concentration of methionine plus 2% dialyzed fetal bovine serum and preincubated for 30 min at 37_C for recovery. […] Incorporation of the [^35S]-methionine in the globin chains and other proteins was analyzed by 15% SDS-PAGE, and subsequent transfer to nitrocellulose membranes. Protein synthesis in reticulocytes was quantitated by scintillation counting of the nitrocellulose strips containing globin chains. Phosphorylation of HRI and eIF2a in isolated reticulocytes were analyzed by western blot analysis following 7.5% and 12% SDS-PAGE respectively. […]
(§2) HRI−/− mice are viable and fertile without gross morphological abnormalities. […] The IF2Alpha kinase activity of HRI in reticulocyte lysates was determined using in vitro protein kinase assays. The extent of the eIF2a phosphorylation was determined by western-blot analysis using antibody specific to the phosphorylated eIF2a. […]

HRI−/− reticulocytes = assay: [35S]-methionine incorporation / protein (globin) synthesis in isolated intact reticulocytes, HRI−/−; assay type: cell-based, mouse
Protocol: as §1, §2

Wt mice = assay: Survival in phenylhydrazine-induced hemolysis, Wt mice; conditions: Wt mice with iron-deficiency, after two injections, 50 mg/Kg
Protocol: (§3) States of iron deficiency have been and remain very common in humans. Thus, exposure to situations that render RBCs more fragile may be often concurrent with iron-deficiency, such as in thalassemias, sickle cell disease, malaria and other infections, extreme climatic conditions, ingestion of natural toxins, heavy metals or drugs. […] Both Wt and HRI−/− mice were injected with phenylhydrazine at the dosages as indicated at Days 0, 1 and 3. The mice were observed daily. […] Six mice of each genotype were used for each dosage. […] The standard phenylhydrazine regime employs three injections of phenylhydrazine on days 0, 1 and 3.

HRI−/− mice = assay: Survival in phenylhydrazine-induced hemolysis, HRI−/− mice; conditions: iron-deficient HRI−/− mice, after two injections, 50 mg/Kg
Protocol: as §3

[1] = biological target: purified rabbit reticulocyte eIF-2 (alpha subunit as substrate), P83268
[2] = biological target: purified wheat germ eIF-2Alpha
[3] = biological target: T1, endogenous eIF2 of mouse reticulocyte lysates (alpha subunit as substrate), Q6ZWX6
T1 chain: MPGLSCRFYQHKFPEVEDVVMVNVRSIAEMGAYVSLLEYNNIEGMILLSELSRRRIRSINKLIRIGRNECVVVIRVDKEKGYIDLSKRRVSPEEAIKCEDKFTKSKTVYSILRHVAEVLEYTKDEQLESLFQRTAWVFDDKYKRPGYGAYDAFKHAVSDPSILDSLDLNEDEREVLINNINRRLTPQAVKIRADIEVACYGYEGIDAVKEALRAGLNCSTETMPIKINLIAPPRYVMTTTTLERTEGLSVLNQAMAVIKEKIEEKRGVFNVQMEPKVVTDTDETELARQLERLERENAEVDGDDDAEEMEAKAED

Sequence of purified rabbit reticulocyte eIF-2 (alpha subunit as substrate), P83268 (P83268 whole entry, looked up, tested part not stated): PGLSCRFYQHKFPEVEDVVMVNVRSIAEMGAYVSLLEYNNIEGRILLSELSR

C[C@@H]1C[C@@H]([C@H](O)CC2CC(=O)NC(=O)C2)C(=O)[C@@H](C)C1 [cycloheximide]
Protein synthesis, inhibition (HRI +/+ reticulocytes; Wt reticulocytes, cycloheximide (2 ìM per method)): inhibited equally well | Protein synthesis, inhibition (HRI−/− reticulocytes; cycloheximide (2 ìM per method)): inhibited equally well

NNc1ccccc1 [phenylhydrazine]
Survival (Wt mice): ~100% | Mice died (HRI−/− mice): 90%

hemin
Incorporation of [35S]-methionine into globins (HRI +/+ reticulocytes; +/+ reticulocytes, pre-treatment with 40_M hemin for 30 min prior to [35S]-methionine): 208 % of control | Protein synthesis, effect of addition of hemin (HRI−/− reticulocytes; hemin added): not affected

B1: 90 kDa polypeptide expressed from rabbit HRI cDNA (heme-regulated eIF-2 alpha kinase), in vitro translation product (protein)
chain: MLGGSAGTRGGEAEGDGAGAVGAVAPPPAIDFPAEVSDPKYDESDVPAELQVLKEPLQQPAFPFAVANQLLLVSLLEHLSHVHEPNPLRSRQVFKLLCQTFIKMGLLSSFTCSDEFSSLRLHHNRAITHLMRSARERVRQDPCADNSHIQKIRSREVALEAQTSRYLNEFEELSILGKGGYGRVYKVRNKLDGQYYAIKKILIKGATKTDCMKVLREVKVLAGLQHPNIVGYHTAWIEHVHVHVQADRVPIQLPSLEVLSDQEEDRDQYGVKNDASSSSSIIFAEFSPEKEKSSDECAVESQNNKLVNYTTNLVVRDTGEFESSTERQENGSIVERQLLFGHNSDVEEDFTSAEESSEEDLSALRHTEVQYHLMLHIQMQLCELSLWDWIAERNRRSRECVDESACPYVMVSVATKIFQELVEGVFYIHNMGIVHRDLKPRNIFLHGPDQQVKIGDFGLACADIIQKNAARTSRNGERAPTHTSRVGTCLYASPEQLEGSEYDAKSDMYSVGVILLELFQPFGTEMERAEVLTGVRAGRIPDSLSKRCPAQAKYVQLLTRRNASQRPSALQLLQSELFQNSAHVNLTLQMKIIEQEREIEELKKQLSLLSQARGVRSDRRDGELPA
eIF-2Alpha kinase activity (32P protein kinase assay, SDS-gel electrophoresis) [1]: translational products of HRI 2A and HRI 2B mRNAs have enhanced eIF-2Alpha kinase activity as compared to the control in the absence of added mRNA

B2: purified reticulocyte HRI (protein)
chain: B1 chain
phosphorylation of eIF-2Alpha (protein kinase assay) [2]: the purified reticulocyte HRI phosphorylates purified wheat germ eIF-2Alpha very inefficiently

B3: mouse HRI protein (heme-regulated eIF2 alpha kinase) in reticulocyte lysates (protein)
chain: MLGGSSVDGERDTDDDAAGAVAAPPAIDFPAEVSDPKYDESDVPAELQVLKEPLQQPTFPFLVANQLLLVSLLEHLSHVHEPNPLHSKQVFKLLCQTFIKMGLLSSFTCSDEFSSLRLHHNRAITHLMRSAKERVRQDPCQDNSYMQKIRSREIAFEAQTSRYLNEFEELAILGKGGYGRVYKVRNKLDGQHYAIKKILIKSATKTDCMKVLREVKVLAGLQHPNIVGYHTAWIEHVHVVQPQDRVPIQLPSLEVLSEQEGDRDQGGVKDNESSSSIVFAELTPEKEKPFGESEVKNENNNLVSYTANLVVRNSSESESSIELQEDGLTDLSVRPVVRHQLPLGHSSELEGNFTSTDESSEGNLNLLGQTEVRYHLMLHIQMQLCELSLWDWITERNKRSREYVDEAACPYVMASVATKIFQELVEGVFYIHNMGIVHRDLKPRNIFLHGPDQQVKIGDFGLACADIIQNADWTNRNGKGTRTHTSRVGTCLYASPEQLEGSQYDAKSDMYSLGVILLELFQPFGTEMERATVLTGVRTGRIPESLSKRCPVQAKYIQLLTGRNVSQRPSALQLLQSELFQTTGNVNLTLQMKIIEQEKEIEELKKQLSLLSQDRGLKR
in vitro eIF2 Alpha phosphorylation in reticulocyte lysates with endogenous eIF2 as substrate [3]: In vitro eIF2 Alpha phosphorylation occurred in reticulocyte lysates from +/+ mice ... little eIF2 phosphorylation was detected in the reticulocyte lysates of HRI-/- mice
